Measurements published in patent publication US5023376A, “Reduction of nitrosamine formation” (Interox America, priority 1989, dated 1991).
“Also recorded” adds a separate entry of the source. Counter-ions that a name gives are not always drawn. Like-named read-outs stand apart in the source and are kept apart here.

Tests used:
[1] = oxidation of dodecyldimethylamine with hydrogen peroxide under transition metal stress conditions in presence of phosphonate or other chelating agent (residual peroxide/amine, amine oxide yield, amine conversion)
Text: The residual amounts of peroxide and amine are the measured amounts in the mixture, the A O yield indicated is the weight percentage of measured amine oxide based on the amount of amine employed, assuming a purity of 97.5% and the amine conversion is based on the weight of the amine material (as 100%) that has been consumed.

[2] = residual nitrosamine content measured by gas chromatography - thermal energy analyzer; conditions: for Residual Nitrosamines: Table 2, sum of dimethylnitrosamine and dodecylmethylnitrosamine, mole ratio about 4.3:1; for Residual Nitrosamine: Table 3
Text: In addition to determining the effect of the phosphonates upon the extent of the reaction, the residual content of nitrosamines was independently measured by gas chromatography - thermal energy analyzer, and Table 2 below gives the sum of the two principal nitrosamines, namely dimethylnitrosamine and dodecylmethylnitrosamine.

[3] = Table 1, amine oxide, based on amine employed, assuming purity of 97.5%, stress conditions, mole ratio about 4.3:1
[4] = Table 1, mole ratio ATMP:metals 7.3:1 (C 5)
[5] = Table 1, stress conditions, 2.5 ppm metals, […]
[6] = Table 1, weight of amine consumed, stress conditions, mole ratio about 4.3:1
[7] = Table 3, chelating agent:metals mole ratio 4.3:1
[8] = chelating agent:metals mole ratio 4.3:1
[9] = Table 1, stress conditions, 2.5 ppm metals, phosphonate:metal mole ratio about 4.3:1
[10] = Table 1, phosphonate pre-mixed with the hydrogen peroxide solution (Ex 3)
[11] = Table 3, lower mole ratio 2.15:1 (Ex 10)

Row | SMILES | A O yield [1, 3] | Amine Conversion [1, 6] | Residual Nitrosamines [2] | A O yield [1, 7] | Amine Conversion [1, 7] | Peroxide Consumed [1, 7] | Residual Nitrosamine [2, 8] | Residual Amine [1, 9] | Residual Peroxide [1, 9] | also measured
1 | O=P(O)(O)CN(CP(=O)(O)O)CP(=O)(O)O [ATMP, aminotris(methylenephosphonic acid) sodium salt] | 38.3 wt % | 40.5 wt % | 11036 ppb |  |  |  |  |  |  | A O yield [1, 4]: 63.1 wt %; Amine Conversion [1, 4]: 65.7 wt %; Residual Amine [1, 4]: 9.9 wt %; Residual Peroxide [1, 4]: 0.02 wt %; Residual Amine [1, 5]: 17.3 wt %; Residual Peroxide [1, 5]: 0.02 wt %; effectiveness in the amine oxidation process (in words) ([1]; stress conditions, listed as C4, sodium salt): less amine conversion and a lower yield of amine oxide than the corresponding reaction to which no phosphonates had been introduced; effectiveness in the amine oxidation process (in words) ([1]; stress conditions, listed as C5, sodium salt): rather better than C4, but still very markedly worse than the results for Ex2/3, Ex6 or Ex7; effectiveness in the amine oxidation process (in words) ([1]; stress conditions, sodium salt): did not perform with similar effectiveness; effect on residual nitrosamine content (in words) ([2]; text conclusion from Table 2): significantly worse
2 | O=C(O)CN(CC(=O)O)C1CCCCC1N(CC(=O)O)CC(=O)O (stereo not shown) [CDTA, cyclohexane-1,2-diaminotetra(acetic acid), sodium salt] |  |  |  | 34.4 wt % | 68.1 wt % | 99.9 wt % | 3279 ppb |  |  | 
3 | O=P(O)(O)CN(CP(=O)(O)O)C1CCCCC1N(CP(=O)(O)O)CP(=O)(O)O (stereo not shown) [CDTMP, cyclohexanediaminotetra(methylenephosphonic acid), sodium salt] | 97.7 wt % | 97.3 wt % | 1950 ppb |  |  |  |  | 0.8 wt % | 0.67 wt % | effectiveness in the amine oxidation process (in words) ([1]; stress conditions): very great amelioration of the problem
4 | O=C(O)CN(CCN(CC(=O)O)CC(=O)O)CCN(CC(=O)O)CC(=O)O [DTPA, diethylenetriaminepenta(acetic acid), sodium salt] |  |  |  | 83.9 wt % | 83.2 wt % | 99.6 wt % | 7017 ppb |  |  | 
5 | O=P(O)(O)CN(CCN(CP(=O)(O)O)CP(=O)(O)O)CCN(CP(=O)(O)O)CP(=O)(O)O [DTPMP, diethylenetriaminepenta(methylenephosphonic acid), sodium salt] | 96.2 wt % | 94.4 wt % | 251 ppb |  |  |  |  | 1.6 wt % | 0.72 wt % | A O yield [1, 10]: 97.2 wt %; Amine Conversion [1, 10]: 96.7 wt %; Residual Amine [1, 10]: 0.9 wt %; Residual Peroxide [1, 10]: 0.66 wt %; A O yield [1, 11]: 98.8 wt %; Amine Conversion [1, 11]: 98.3 wt %; Peroxide Consumed [1, 11]: 83.1 wt %; effectiveness in the amine oxidation process (in words) ([1]; stress conditions, sodium salt): very great amelioration of the problem; also recorded: equally as good, or possibly even slightly better when introduced via the hydrogen peroxide solution; Residual Nitrosamine ([2]; lower mole ratio 2.15:1 (Ex 10)): 1031 ppb
6 | O=P(O)(O)CN(CCN(CP(=O)(O)O)CP(=O)(O)O)CCN(CP(=O)(O)O)CP(=O)(O)O [DTPMPA] |  |  |  | 96.5 wt % | 96.1 wt % | 86.4 wt % | 1591 ppb |  |  | 
7 | O=C([O-])CN(CCN(CC(=O)[O-])CC(=O)[O-])CC(=O)[O-].[Na+].[Na+].[Na+].[Na+] [EDTA, ethylenediaminetetra(acetic acid), sodium salt] |  |  |  |  |  |  | 3421 ppb |  |  | A O yield [1]: 35.3 wt %; Amine Conversion [1]: 54.8 wt %; Peroxide Consumed [1]: 99.9 wt %
8 | O=P(O)(O)CN1CCN(CP(=O)(O)O)CCN(CP(=O)(O)O)CCN(CP(=O)(O)O)CCN(CP(=O)(O)O)CCN(CP(=O)(O)O)CC1 [HCMP, hexacyclenehexa(methylenephosphonic acid)] | 97.1 wt % | 96.8 wt % | 1056 ppb |  |  |  |  | 0.9 wt % | 0.76 wt % | effectiveness in the amine oxidation process (in words) ([1]; stress conditions): very great amelioration of the problem
9 | O=P(O)(O)CN(CCCCCCN(CP(=O)(O)O)CP(=O)(O)O)CP(=O)(O)O [HDTMP, hexamethylenediaminetetra(methylene phosphonic acid)] |  |  |  | 37.0 wt % | 58.7 wt % | 99.6 wt % | 3834 ppb |  |  | effectiveness in the amine oxidation process (in words) ([1]; stress conditions, listed as C11): singularly ineffective; effectiveness in the amine oxidation process (in words) ([1]; stress conditions, listed as hexamethylenediaminotetra(methylenephosphonic acid)): significantly inferior
10 | CC(O)(P(=O)(O)O)P(=O)(O)O [HEDP, hydroxyethylidene-1,1-diphosphonic acid] |  |  |  | 32.1 wt % | 48.2 wt % | 99.6 wt % | 10024 ppb |  |  | effectiveness in the amine oxidation process (in words) ([1]; stress conditions, listed as (hydroxyethylidene)diphosphonic acid): significantly inferior; effectiveness in the amine oxidation process (in words) ([1]; stress conditions, listed as C12): ineffective
